In patent US9676789B2, “Aminated derivative of homoharringtonine, preparation method therefor, and application thereof” (HANGZHOU BENSHENG PHARMACEUTICAL CO., LTD., priority 2011, dated 2017):
Values after ≈ are worked out from the molar mass of the structure shown.

Columns and labels:
[1] = system: H9 (acute lymphoblastic leukemia, ALL); test: MTT leukemia cell growth inhibition, 72 h; assay type: cell-based, human; details: Homo sapiens, H9, 72 h; for IC50: read-out: IC50; for IC90: read-out: IC90
Text: (§1) Leukemia cell lines: K562/adr (drug-resistant, chronic myeloid leukemia, CML), NB4 (acute promyelocytic leukemia, AML), Kasumi-1 (acute myeloid leukemia M2 type, AML-M2), Jurkat (acute lymphoblastic leukemia, ALL), all of which are donated by Cancer Research Institute of Zhejiang University, China; and H9 (acute lymphoblastic leukemia, ALL), which is purchased from China Center for Type Culture Collection.
(§2) Obtaining 6000 well-growing leukemia cells and inoculating them into wells of a 96-well cell culture plate. The culture medium is the 1640 cell culture medium containing 10% fetal bovine serum. After adding the homoharringtonine derivatives of different concentrations and mixing uniformly, placing the plate in a carbon dioxide cell incubator (5% CO2) at 37° C. and incubating for 72 hours. Then the viable cell concentration is determined by the MTT method. In this experiment, the cell viability in control group (not treated with any compound) is set as 100%.

[2] = system: Jurkat (acute lymphoblastic leukemia, ALL); test: MTT leukemia cell growth inhibition, 72 h; assay type: cell-based, human; details: Homo sapiens; for IC50: read-out: IC50; for IC90: read-out: IC90
Text: as §1, §2

[3] = system: K562/adr (drug-resistant, chronic myeloid leukemia, CML); test: MTT leukemia cell growth inhibition, 72 h; assay type: cell-based, human; details: Homo sapiens, K562/Adr; for IC50: read-out: IC50; for IC90: read-out: IC90
Text: as §1, §2

[4] = system: Kasumi-1 (acute myeloid leukemia M2 type, AML-M2); test: MTT leukemia cell growth inhibition, 72 h; assay type: cell-based, human; details: Homo sapiens, Kasumi-1, 72 h; for IC50: read-out: IC50; for IC90: read-out: IC90
Text: as §1, §2

[5] = system: NB4 (acute promyelocytic leukemia, AML); test: MTT leukemia cell growth inhibition, 72 h; assay type: cell-based, human; details: Homo sapiens, NB4, 72 h; for IC50: read-out: IC50; for IC90: read-out: IC90
Text: as §1, §2

[6] = system: RPMI8226 (multiple myeloma); test: MTT multiple myeloma cell growth inhibition, 72 h; assay type: cell-based, human; details: Homo sapiens, RPMI-8226, RPMI8226, 72 h; for IC50: read-out: IC50; for IC90: read-out: IC90
Procedure: Multiple myeloma and lymphoma cell lines: RPMI8226 (multiple myeloma), purchased from Fuxiang Bio-tech Co. Ltd., Shanghai, China.
as §2, with “method.” for “method. In this experiment, the cell viability in control group (not treated with any compound) is set as 100%.”

[7] = system: A549 (human lung cancer); test: MTT solid tumor cell growth inhibition, 72 h; assay type: cell-based; details: Homo sapiens, A549, 72 h; for IC50: read-out: IC50; for IC90: read-out: IC90
Procedure: (§3) Human solid tumor cell lines: Hep-2 ([…]), A549 (human lung cancer), CaES-17 (esophageal cancer cell), PC-3 (prostate cancer), CNE (nasopharyngeal carcinoma cell), and SK-OV-3 (ovarian cancer cell), all of which are purchased from China Center For Type Culture Collection; RKO (human colon adenocarcinoma cell), MGC 803 (human gastric cancer cell), MG63 (osteosarcoma) and U87 MG (malignant glioma cell), all of which are purchased from Fuxiang Bio-tech Co. Ltd., Shanghai, China; PANC-1 (pancreatic cancer), Huh7 (human liver cancer cell), Becap37 (human breast cancer cell), and Hela (human cervical cancer cell), all of which are donated by Cancer Research Institute of Zhejiang University, China.
(§4) Obtaining 4000 well-growing human solid tumor cells and inoculating them into wells of a 96-well cell culture plate. The culture medium is DMEM High Glucose cell culture medium containing 10% fetal bovine serum. The plate is placed in a carbon dioxide cell incubator (5% CO2) at 37° C. and incubating for 24 hours. After adding the homoharringtonine derivatives of different concentration and mixing uniformly, the plate is placed in a carbon dioxide cell incubator (5% CO2) at 37° C. and incubating for 72 hours. Then the viable cell concentration is determined by the MTT method and the cell viability (%) after drug treatment is calculated. In this experiment, the cell viability of control group (not treated with any compound) is set as 100%.

[8] = system: Becap37 (human breast cancer cell); test: MTT solid tumor cell growth inhibition, 72 h; assay type: cell-based; details: Homo sapiens, Becap37, 72 h; for IC50: read-out: IC50; for IC90: read-out: IC90
Procedure: as §3, §4

[9] = system: Huh7 (human liver cancer cell); test: MTT solid tumor cell growth inhibition, 72 h; assay type: cell-based; details: Homo sapiens, Huh-7, Huh7, 72 h; for IC50: read-out: IC50; for IC90: read-out: IC90
Procedure: as §3, §4

[10] = system: MGC 803 (human gastric cancer cell); test: MTT solid tumor cell growth inhibition, 72 h; assay type: cell-based; details: Homo sapiens, MGC 803, 72 h; for IC50: read-out: IC50; for IC90: read-out: IC90
Procedure: as §3, §4

[11] = system: RKO (human colon adenocarcinoma cell); test: MTT solid tumor cell growth inhibition, 72 h; assay type: cell-based; details: Homo sapiens; for IC50: read-out: IC50; for IC90: read-out: IC90
Procedure: as §3, §4

[12] = system: MG63 (osteosarcoma); test: MTT solid tumor cell growth inhibition, 72 h; assay type: cell-based, human; details: Homo sapiens, MG 63, 72 h; for IC50: read-out: IC50; for IC90: read-out: IC90
Procedure: as §3, §4

[13] = system: PANC-1 (pancreatic cancer); test: MTT solid tumor cell growth inhibition, 72 h; assay type: cell-based, human; details: Homo sapiens, PANC-1, 72 h; for IC50: read-out: IC50; for IC90: read-out: IC90
Procedure: as §3, §4

SMILES	IC50 [1]	IC90 [1]	IC50 [2]	IC90 [2]	IC50 [3]	IC90 [3]	IC50 [4]	IC90 [4]	IC50 [5]	IC90 [5]	IC50 [6]	IC90 [6]	IC50 [7]	IC90 [7]	IC50 [8]	IC90 [8]	IC50 [9]	IC90 [9]	IC50 [11]	IC90 [11]	also measured
COC1=C[C@]23CCCN2CCc2cc4c(cc2[C@@H]3[C@@H]1OC(=O)[C@@](O)(CCCC(C)(C)O)CC(=O)N1CCCC(O)C1)OCO4 (stereo partly drawn) [BS-HH-025]	> 16 µg/mL	> 16 µg/mL	> 16 µg/mL	> 16 µg/mL	> 16 µg/mL	> 16 µg/mL	> 16 µg/mL	> 16 µg/mL	8.31 µg/mL (≈ 13.5 µM)	> 16 µg/mL	> 16 µg/mL	> 16 µg/mL	> 16 µg/mL	> 16 µg/mL	> 16 µg/mL	> 16 µg/mL	> 16 µg/mL	> 16 µg/mL	15.3 µg/mL (≈ 25 µM)	> 16 µg/mL	IC50 [10]: > 16 µg/mL; IC90 [10]: > 16 µg/mL; IC50 [12]: > 16 µg/mL; IC90 [12]: > 16 µg/mL; IC50 [13]: > 16 µg/mL; IC90 [13]: > 16 µg/mL
COC1=C[C@]23CCCN2CCc2cc4c(cc2[C@@H]3[C@@H]1OC(=O)[C@@](O)(CCCC(C)(C)O)CC(=O)N1CCN(CCO)CC1)OCO4 [BS-HH-020]	> 16 µg/mL	> 16 µg/mL	15.1 µg/mL (≈ 23.5 µM)	> 16 µg/mL	> 16 µg/mL	> 16 µg/mL	> 16 µg/mL	> 16 µg/mL	7.46 µg/mL (≈ 11.6 µM)	15.8 µg/mL (≈ 24.5 µM)	16 µg/mL (≈ 24.9 µM)	> 16 µg/mL	> 16 µg/mL	> 16 µg/mL	> 16 µg/mL	> 16 µg/mL	> 16 µg/mL	> 16 µg/mL	8.38 µg/mL (≈ 13 µM)	> 16 µg/mL	IC50 [10]: 7.5 µg/mL (≈ 11.6 µM); IC90 [10]: > 16 µg/mL; IC50 [12]: 14.1 µg/mL (≈ 22 µM); IC90 [12]: > 16 µg/mL; IC50 [13]: > 16 µg/mL; IC90 [13]: > 16 µg/mL
COC1=C[C@]23CCCN2CCc2cc4c(cc2[C@@H]3[C@@H]1OC(=O)[C@@](O)(CCCC(C)(C)O)CC(=O)N1CC=CC1)OCO4 [BS-HH-018]	2.69 µg/mL (≈ 4.62 µM)	> 16 µg/mL	0.88 µg/mL (≈ 1.51 µM)	16 µg/mL (≈ 27.5 µM)	7.77 µg/mL (≈ 13.3 µM)	> 16 µg/mL	0.47 µg/mL (≈ 0.807 µM)	2.32 µg/mL (≈ 3.98 µM)	0.38 µg/mL (≈ 0.652 µM)	1 µg/mL (≈ 1.72 µM)	0.6 µg/mL (≈ 1.03 µM)	5.66 µg/mL (≈ 9.71 µM)	4.09 µg/mL (≈ 7.02 µM)	> 16 µg/mL	1.7 µg/mL (≈ 2.92 µM)	> 16 µg/mL	2.5 µg/mL (≈ 4.29 µM)	> 16 µg/mL	0.34 µg/mL (≈ 0.583 µM)	1.5 µg/mL (≈ 2.57 µM)	IC50 [10]: 0.94 µg/mL (≈ 1.61 µM); IC90 [10]: 4.96 µg/mL (≈ 8.51 µM); IC50 [12]: 0.96 µg/mL (≈ 1.65 µM); IC90 [12]: > 16 µg/mL; IC50 [13]: 2.89 µg/mL (≈ 4.96 µM); IC90 [13]: > 16 µg/mL
COC1=C[C@]23CCCN2CCc2cc4c(cc2[C@@H]3[C@@H]1OC(=O)[C@@](O)(CCCC(C)(C)O)CC(=O)N1CCN(C)CC1)OCO4 [BS-HH-009]	8 µg/mL (≈ 13 µM)	> 16 µg/mL	3 µg/mL (≈ 4.89 µM)	> 16 µg/mL	> 16 µg/mL	> 16 µg/mL	8.54 µg/mL (≈ 13.9 µM)	> 16 µg/mL	2.97 µg/mL (≈ 4.84 µM)	11.2 µg/mL (≈ 18.2 µM)	3.6 µg/mL (≈ 5.87 µM)	16 µg/mL (≈ 26.1 µM)	10.2 µg/mL (≈ 16.7 µM)	> 16 µg/mL	3.09 µg/mL (≈ 5.03 µM)	> 16 µg/mL	6.7 µg/mL (≈ 10.9 µM)	> 16 µg/mL	1.46 µg/mL (≈ 2.38 µM)	5.72 µg/mL (≈ 9.32 µM)	IC50 [12]: 1.72 µg/mL (≈ 2.8 µM); IC90 [12]: > 16 µg/mL; IC50 [13]: 16 µg/mL (≈ 26.1 µM); IC90 [13]: > 16 µg/mL
